Measurements: ChEMBL document CHEMBL4417636, “Small molecule inhibitors of pendrin ion exchange and pharmaceutical compositions” (2017)
Active and inactive are the calls of the source. The calls are words filed in the database; no cut-off is given here.

Columns and labels:
Pendrin (Mus musculus) = target: T1, Pendrin (Mus musculus) (UniProt Q9R155); assay: Inhibition of mouse pendrin expressed in FRT cells co-expressing YFP-HIF assessed as reduction in pendrin-mediated exchange of Cl(-) with I(-) by pH-sensitive fluorescent probe BCECF-AM based fluorescence assay relative to control; type: cell-based
T1 sequence (whole entry): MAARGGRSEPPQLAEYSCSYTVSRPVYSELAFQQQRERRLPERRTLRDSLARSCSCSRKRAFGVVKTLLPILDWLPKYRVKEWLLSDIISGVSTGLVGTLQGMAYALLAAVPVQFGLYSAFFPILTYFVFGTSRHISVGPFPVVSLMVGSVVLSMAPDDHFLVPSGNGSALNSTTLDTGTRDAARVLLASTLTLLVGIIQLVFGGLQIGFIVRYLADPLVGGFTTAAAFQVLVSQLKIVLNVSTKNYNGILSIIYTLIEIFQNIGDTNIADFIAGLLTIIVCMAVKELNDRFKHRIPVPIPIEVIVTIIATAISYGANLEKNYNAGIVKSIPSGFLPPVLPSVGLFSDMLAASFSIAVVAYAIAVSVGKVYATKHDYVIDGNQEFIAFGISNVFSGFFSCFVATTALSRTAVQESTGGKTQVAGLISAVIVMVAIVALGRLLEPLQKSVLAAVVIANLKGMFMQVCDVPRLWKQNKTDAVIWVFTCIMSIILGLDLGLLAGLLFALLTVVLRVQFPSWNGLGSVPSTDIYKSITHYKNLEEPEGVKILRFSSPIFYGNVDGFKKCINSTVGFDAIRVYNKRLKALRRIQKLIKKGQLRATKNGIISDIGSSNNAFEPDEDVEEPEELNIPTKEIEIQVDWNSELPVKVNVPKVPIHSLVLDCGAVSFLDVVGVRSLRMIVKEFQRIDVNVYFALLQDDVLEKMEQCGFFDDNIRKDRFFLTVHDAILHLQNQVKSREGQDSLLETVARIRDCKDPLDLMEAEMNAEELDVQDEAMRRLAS

[1] = target: T2, Solute carrier family 12 member 2 (Homo sapiens) (UniProt P55011); assay: Inhibition of human NKCC1 expressed in COS7 co-expressing EYFP-HIF assessed as effect on I(-) gradient at 25 uM by YFP-based fluorescence quenching assay
T2 sequence (whole entry): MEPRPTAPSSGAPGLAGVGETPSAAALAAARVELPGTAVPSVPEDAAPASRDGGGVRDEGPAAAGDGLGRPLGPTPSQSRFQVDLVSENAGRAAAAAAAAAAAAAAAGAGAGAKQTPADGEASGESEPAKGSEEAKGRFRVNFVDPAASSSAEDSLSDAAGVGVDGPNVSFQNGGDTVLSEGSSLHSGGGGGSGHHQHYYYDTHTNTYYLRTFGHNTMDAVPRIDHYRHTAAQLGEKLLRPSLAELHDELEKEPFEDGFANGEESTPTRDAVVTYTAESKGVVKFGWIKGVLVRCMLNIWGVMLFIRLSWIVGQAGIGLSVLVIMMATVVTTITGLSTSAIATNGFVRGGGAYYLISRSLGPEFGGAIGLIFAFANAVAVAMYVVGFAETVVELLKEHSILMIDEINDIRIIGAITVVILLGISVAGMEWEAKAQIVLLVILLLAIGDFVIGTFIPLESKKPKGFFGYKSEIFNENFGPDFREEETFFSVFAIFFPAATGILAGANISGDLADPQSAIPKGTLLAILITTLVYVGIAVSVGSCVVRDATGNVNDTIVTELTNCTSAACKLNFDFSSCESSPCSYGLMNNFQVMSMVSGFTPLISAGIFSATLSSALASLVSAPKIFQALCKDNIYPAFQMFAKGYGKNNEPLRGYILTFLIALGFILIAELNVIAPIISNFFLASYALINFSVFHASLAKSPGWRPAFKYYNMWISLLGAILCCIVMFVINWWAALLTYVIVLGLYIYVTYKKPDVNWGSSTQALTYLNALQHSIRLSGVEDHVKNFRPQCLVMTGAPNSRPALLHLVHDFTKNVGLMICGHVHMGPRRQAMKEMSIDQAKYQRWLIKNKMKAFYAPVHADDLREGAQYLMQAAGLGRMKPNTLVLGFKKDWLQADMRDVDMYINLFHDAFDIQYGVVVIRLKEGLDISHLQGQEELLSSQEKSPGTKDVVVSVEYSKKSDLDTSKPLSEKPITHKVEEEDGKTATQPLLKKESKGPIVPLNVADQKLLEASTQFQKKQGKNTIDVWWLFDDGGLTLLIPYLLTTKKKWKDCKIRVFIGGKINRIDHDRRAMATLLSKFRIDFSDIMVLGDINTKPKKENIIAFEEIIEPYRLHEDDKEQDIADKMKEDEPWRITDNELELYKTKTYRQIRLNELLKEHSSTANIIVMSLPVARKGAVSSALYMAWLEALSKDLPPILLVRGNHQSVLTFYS

Pendrin = target: T3, Pendrin (Homo sapiens, UniProt O43511); assay: Inhibition of human pendrin expressed in FRT cells co-expressing EYFP-HIF assessed as reduction in pendrin-mediated C17F exchange incubated for 10 mins by pH-sensitive fluorescent probe BCECF-AM based fluorescence assay relative to control; type: cell-based
T3 sequence (O43511 whole entry): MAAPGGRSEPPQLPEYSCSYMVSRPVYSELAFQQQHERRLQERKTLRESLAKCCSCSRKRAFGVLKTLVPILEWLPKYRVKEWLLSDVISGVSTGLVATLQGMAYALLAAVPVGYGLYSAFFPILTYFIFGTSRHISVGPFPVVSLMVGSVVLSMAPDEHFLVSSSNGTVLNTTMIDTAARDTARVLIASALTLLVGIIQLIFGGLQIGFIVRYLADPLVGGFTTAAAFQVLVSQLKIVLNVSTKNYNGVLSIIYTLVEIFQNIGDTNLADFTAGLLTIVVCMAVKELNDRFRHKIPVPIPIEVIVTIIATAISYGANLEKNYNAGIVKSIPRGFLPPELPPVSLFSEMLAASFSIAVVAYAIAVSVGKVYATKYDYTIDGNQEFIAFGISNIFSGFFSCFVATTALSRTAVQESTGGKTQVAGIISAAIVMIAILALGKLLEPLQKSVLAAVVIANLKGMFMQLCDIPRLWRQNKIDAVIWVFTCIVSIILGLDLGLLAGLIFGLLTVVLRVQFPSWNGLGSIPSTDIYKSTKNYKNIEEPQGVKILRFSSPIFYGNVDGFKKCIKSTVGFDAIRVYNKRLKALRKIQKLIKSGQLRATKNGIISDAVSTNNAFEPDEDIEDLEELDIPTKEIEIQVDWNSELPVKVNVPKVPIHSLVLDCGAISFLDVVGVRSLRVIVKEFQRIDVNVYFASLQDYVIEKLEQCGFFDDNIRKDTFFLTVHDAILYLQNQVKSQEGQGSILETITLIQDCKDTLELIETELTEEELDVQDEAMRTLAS

Mus musculus = assay: Potentiation of 20 mg/kg, ip furosemide-induced acute diuretic action in CD1 mouse assessed as effect on urinary K+ excretion at 10 mg/kg, ip measured at 3 hrs relative to control; type: functional, organism-based

inhibition (Pendrin (Mus musculus)): Dose-dependent effect
inhibition [1]: inactive
IC50 (Pendrin): 9 µM
SMILES: Cc1n[nH]c(-c2cc(S(=O)(=O)NC3CCCc4ccccc43)c(C)s2)c1C (centres undefined)
Activity (Mus musculus): inactive
